Experiment: Measurement of oxidation induction time (OIT) by DSC
Settings: with liquid polyisoprene LIR-50, isothermal 180° C., O2 atmosphere 50 mL/min, DSC peak; measurement accuracy ±10 min
Experimental: The compound of formula III) was investigated under laboratory conditions for their potential protective effect as aging stabilizers by measurement of the oxidation induction time.
To this end the compounds of formula III) and 6-PPD in each case together with a polymer (liquid synthetic polyisoprene (IR), LIR-50, Kuraray, weight average molecular weight distribution MW=54 000 g/mol, glass transition temperature Tg=−63° C.) were heated at constant temperature (180° C.) until onset of oxidation (start temperature 35° C., heating to 170° C. at a heating rate of 20 K/min (kelvin per minute), heating to 180° C. at a heating rate of 1 K/min; purge gas: nitrogen (N2), volume flow 50 mL/min). The specimen was isothermally maintained for 5 minutes at 180° C. under an N2 atmosphere and the atmosphere was then switched to an O2 atmosphere (volume flow 50 mL/min).
Oxidation was determined via a peak using DSC (differential scanning calorimetry).
The time in minutes to oxidation was measured.

CC(C)CC(C)Nc1ccc(-c2cc3ccccc3[nH]2)cc1 (centres unmarked)
Oxidation induction time (time to oxidation): 121 ± 10 min

CC(C)CC(C)Nc1ccc(Nc2ccccc2)cc1 (centres unmarked) [Compound 6-PPD, N-(1,3-dimethylbutyl)-N′-phenyl-p-phenylenediamine]
Oxidation induction time (time to oxidation): 116 ± 10 min
